Assay [1] concerns Primary human coronary artery vascular smooth muscle cells. Put plainly: EVs isolated from VSMC cultures: protein immunoblot and TNAP activity. Format: cell-based. On the procedure:
To assess the role of EGFR inhibition, tyrphostin AG1478 (Millipore Sigma, T4182) was dissolved in vehicle (DMSO:Methanol, 1:1) and added to OS media to a final concentration of 2.5 μM. An equal volume of vehicle was added to the control and OS groups. It shown that 28 days in OS culture media led to robust calcification by VSMCs; therefore, all cultures (n=3, independent donors, male and female) were treated for 28 days and media were replaced every three days. On days 6, 13, 20, and 27 the media were replaced by an extracellular-vesicle-free (EV-free) media (ultracentrifuged for 15 hours at 100,000×g at 4° C. to remove background EVs common in the serum). After 24 hours, conditioned media were collected on days 7, 14, 21, and 28. Collected media were centrifuged at 1,000×g for 5 min to remove cell debris. EV isolation was performed using ultracentrifugation (Beckman Coulter, Optima MAX-TL) at 100,000×g for 1 hour.
For EV TNAP activity measurement, after ultracentrifugation at 100,000×g for 1 hour, the pellets were re-suspended in 120 μL buffer assay. The assessment was performed using the same assay protocol described for intracellular TNAP activity and the results were normalized to the total protein for each sample. For mice serum TNAP activity, the samples were diluted 1:20 and assessment was performed according to the manufacturer's protocol.
VSMCs, osteoblasts, isolated EVs (either from cells or mouse aortas), and matrix vesicles (from osteoblasts) were lysed in RIPA lysis and extraction buffer supplemented with protease inhibitor. After adding Laemmli SDS-sample buffer (1:4 v/v, Boston BioProducts, BP-110R) to each lysate, the samples were denatured at 100° C. for 10 min, loaded into 7.5-12% 1-mm SDS-PAGE gel (15 to 20 μg protein per lane), and run at 170 V. The proteins were then transferred to Trans-Blot turbo nitrocellulose membranes (BIO-RAD, 1704158) at 25 V for 7 min.
To quantify the total protein, the membranes were stained using 2% w/v Ponceau stain (Alfa Aesar, AAJ6074409) for 20 min, followed by one wash with 5% acetic acid and milliQ water for 5 min. After imaging, the intensity of each lane was measured in ImageJ for total protein normalization. Membranes were blocked with 5% w/v bovine serum albumin (HyClone, SH30574.01) in TBS-Tween (1×) for 1 hour. The membranes were incubated with primary antibodies of interest, including CAV1 (1:200, Abcam, ab2910), TNAP (1:200, Invitrogen, 702454), EGFR ([…], EMD Millipore, 06-874), CD63 (1:200, Abeam, ab231975), GAPDH (1:100, Abcam, ab181602), and Annexin V (1:200, proteintech, 11060-1-AP) overnight at 4° C. After three washes with TBS-Tween (1×), the membranes were incubated with secondary antibody (1:1000, Li-Cor) for 1 hour, followed by three washes with TBS-Tween (1×). The protein bands were visualized with Odyssey CLx scanner (Li-Cor), and quantified using Image Studio Lite software (Li-Cor).
(In general: A western blot detects proteins with antibodies after separation by electrophoresis.)

The test system of assay [2] is Osteoblasts (hFOB 1.19). Put plainly: In vitro calcification of osteoblasts, Alizarin Red S staining. Format: cell-based, human. To be noted: OS + 2.5 μM vs OS, 21 days; p=0.86. On the procedure:
(§1) Osteoblasts (from human fetus, hFOB 1.19, ATCC, CRL-11372) were cultured and grown in DMEM containing 10% v/v bovine calf serum and 1% v/v penicillin-streptomycin. Osteoblasts (passage 4-6) were harvested using 0.25% trypsin-EDTA solution (Caisson Labs, TRL01), seeded with a density of 5,200 cell.cm^−2, and incubated for 24 hours at 37° C. and 5% CO2 with controlled humidity. The cells were treated in three groups of control, OS, and OS supplemented with tyrphostin AG1478 (2.5 μM) for 21 days and media changed every three days. […] Similar to the VSMC experiments, EV-free media were added to the cultures on days 6, 13, and 20, and collected 24 hours later on days 7, 14, and 21. Collected media were centrifuged at 1,000×g for 5 min to remove cell debris. EVs were isolated using the ultracentrifugation at 100,000×g for 1 hour.
At the end of experiments (28 and 21 days of treatment on VSMCs and osteoblasts, respectively), media were removed, and the cells were fixed using Formalin (10%, Fisher Chemical, SF100). To visualize in vitro calcification, Alizarin Red S stain (ARS, Ricca, 500-32) was added to the wells and incubated for 30 min at room temperature. […]
To quantify the in vitro calcification, ARS stain was extracted using acetic acid (1.67 M, Fisher Chemical, A38S) on a shaker. […] Sample absorbance of 405 nm was measured using a multi-mode reader (BioTek, Synergy HTX).

The subject of another assay is CKD mice. Put plainly: EVs isolated from mouse aortas: CAV1 immunoblot and TNAP activity. To be noted: CKD mice treated vs CKD. Format: in vivo. The protocol:
Immediately after scanning, the tissue was incubated in a digestive solution of sucrose (0.25 M, Sigma, S7903), NaCl (0.12 M, Fisher Chemical, BP358), KCl (0.01 M, Fisher Chemical, P217), Tris hydrochloride (0.02 M, Fisher Chemical, BP153), and collagenase (600 U/mL, Worthington Biochemical, LS004174) for 2 hours at 37° C. The solution was then centrifuged at 1,000×g for 15 min to remove cell debris and at 33,000×g for 30 min to remove microvesicles. Finally, the supernatants were ultracentrifuged (Beckman Coulter, Optima MAX-TL) at 100,000×g for 1 hour to isolate the EVs of interest. The pellet was suspended in RIPA lysis and extraction buffer (G Biosciences, 786-489) supplemented with pierce protease inhibitor (Thermo Scientific, A32963). To yield sufficient protein concentration for analysis, EVs isolated from 2 to 3 aortas were pooled.
(§2) For EV TNAP activity measurement, after ultracentrifugation at 100,000×g for 1 hour, the pellets were re-suspended in 120 μL buffer assay. […]
(§3) To quantify the total protein, the membranes were stained using 2% w/v Ponceau stain (Alfa Aesar, AAJ6074409) for 20 min, followed by one wash with 5% acetic acid and milliQ water for 5 min. After imaging, the intensity of each lane was measured in ImageJ for total protein normalization. […] The protein bands were visualized with Odyssey CLx scanner (Li-Cor), and quantified using Image Studio Lite software (Li-Cor).

For assay [3], the system named is Osteoblasts (hFOB 1.19). Put plainly: Matrix vesicles from osteoblast cultures: CAV1 and TNAP activity. Format: cell-based, human. To be noted: OS + 2.5 μM. On the procedure:
as §1, §2, §3

`COc1cc2ncnc(Nc3cccc(Cl)c3)c2cc1OC` [AG1478, tyrphostin AG1478]: the “level of CD63 on EVs from VSMCs” value in assay [1] (28 days of culture, across in vitro groups, p=0.9) is reported as “preserved”. Besides, in assay [1] (OS + 2.5 μM, day 28), the “level of Annexin V on EVs from VSMCs” value was “reduced levels” and the “level of EGFR on EVs from VSMCs” value was “reduced levels”. In assay [1] (OS + 2.5 μM, days 14, 21, 28), the “EV TNAP activity (VSMC cultures)” value was “reduced” and the “release of CAV1-positive EVs by VSMCs” value is reported as “reduced”. In addition, the “CD63 protein within EVs from vascular SMCs” value in assay [1] (pro-calcific media + 2.5 μM, 14 days, vs control and pro-calcific media) is on record as “no differences”. The “quantification of the in vitro calcification of osteoblasts (Alizarin red)” value in the assay with Osteoblasts (hFOB 1.19) [2] is given as “no significant difference”. The “CAV1 protein on EVs isolated from aortas” value in the assay on CKD mice (p<0.0001) was “significantly lower”. Moreover, in the assay on CKD mice (p=0.003), the “TNAP activity of EVs isolated from aortas” value is “significantly lower”. In the assay with Osteoblasts (hFOB 1.19) [3] (compared to control, days 14 and 21), the “CAV1 protein on matrix vesicles released by osteoblasts” value is given as “lower levels”. For the same compound, the “TNAP activity of matrix vesicles released by osteoblasts” value with Osteoblasts (hFOB 1.19) [3] (days 7, 14, 21) is reported as “significantly increased”.
